Where two headings read alike, the source gives them in different places.

One data set deals with HIV-1. The settings on record: MT-4 cells; cited from earlier work.
In data set [1] the target is recombinant HIV-1 protease (Human immunodeficiency virus type 1 group M subtype B, UniProt P04585). The following applies: cited from earlier work.
Another data set concerns MCF-7 cells. In words: Cell proliferation assay (tetrazolium salt/MTT method), MCF-7. Type of data set: cell-based. The settings on record: Homo sapiens, read-out: IC50, inhibition of cell proliferation. How it is done:
(§1) Cell culture: The human breast cancer cell lines MCF-7 and MDA-MB-231, obtained from ATCC (Manassas, Va.), were cultivated in Dulbecco's modified Eagle's medium (DMEM) containing penicillin (50 U/ml), streptomycin (50 U/ml), and 10% fetal bovine serum (FBS). Media and supplements were from Invitrogen (Grand Island, N.Y.).
(§2) Cell proliferation assay: Ganodermanontriol, 13, 14, and 15 (isomers) were dissolved in DMSO (Sigma; St. Louis, Mo.) at a concentration of 10 mM and stored at 4° C. Dulbecco's phosphate buffered saline (DPBS) was purchased from Cambrex Bio Science Walkersville, Inc. (Walkersville, Md.). Cell proliferation was determined by the tetrazolium salt method (MTT method), according to the manufacturer's instructions (Promega, Madison, Wis.). Briefly, MCF-7 and MDA-MB-231 cells (2.5×10^3/well) were cultured in a 96-well plate and treated with ganodermanontriol, 13, 14 and 15 (0-100 μg/ml) for 24, 48, and 72 hrs. At the end of the incubation period, the cells were harvested and absorption was determined with an ELISA plate reader at 570 nm. Data points represent mean±SD in triplicate determinations repeated at least twice. IC50 values were determined by using SigmaPlot (Systat Software Inc, San Jose, Calif.).
On the technique in general: Formazan colour is commonly taken as a measure of viable cells.

Another data set relates to MDA-MB-231 cells. In words: Cell proliferation assay (tetrazolium salt/MTT method), MDA-MB-231. Type of data set: cell-based. The following applies: Homo sapiens, read-out: IC50, inhibition of cell proliferation. How it is done: as §1, §2
In another data set the test system is mammalian cells. The following applies: potentially through inhibition of lanosterol 14α demethylase; cited from earlier work.
Data set [2] concerns classical pathway (CP) of the complement system. The following applies: read-out: IC(50), anticomplement activity; cited from earlier work.
Data set [3] has as its system xenograft model of colon cancer. The settings on record: cited from earlier work.
The next data set has as its system human colon cancer cells. The following applies: in vitro; cited from earlier work.
Where [4] appears, read: MDA-MB-231 cells, 72 h, 0-100 μM.

Take `C[C@H](CCC=C(CO)CO)[C@H]1CC[C@@]2(C)C3=CC[C@H]4C(C)(C)C(=O)CC[C@]4(C)C3=CC[C@]12C` [ganoderiol F, reference compound]: the “inhibition of HIV-1-induced cytopathic effect” value in the data set on HIV-1 was “inhibited”.

Turning to `C/C(=C\CC[C@@H](C)[C@H]1CC(=O)[C@@]2(C)C3=C(C(=O)C[C@]12C)[C@@]1(C)CC[C@H](O)C(C)(C)[C@@H]1C[C@@H]3O)C(=O)O` [ganoderic acid β], the “inhibitory activity against recombinant HIV-1 protease” value (“inhibitory activity” below) in [1] is listed as “significant inhibitory activity”.

With `C[C@H](CC[C@@H](O)[C@@](C)(O)CO)[C@H]1CC[C@@]2(C)C3=CCC4C(C)(C)C(=O)CC[C@]4(C)C3=CC[C@]12C` (stereo partly drawn) [compound 13, (10S,13R,14R,17R)-4,4,10,13,14-Pentamethyl-17-((2R,5R,6S)-5,6,7-trihydroxy-6-methylheptan-2-yl)-4,5,6,10,12,13,14,15,16,17-decahydro-1H-cyclopenta[a]phenanthren-3(2H)-one], the IC50 in the data set on MCF-7 cells (MCF7 cells, 72 h, 0-100 μM) was found to be 24.1 µM; in the data set with MDA-MB-231 cells (setting [4]), 33.8 µM.

Consider `C[C@H](CC[C@@H](O)[C@](C)(O)CO)[C@H]1CC[C@@]2(C)C3=CCC4C(C)(C)C(=O)CC[C@]4(C)C3=CC[C@]12C` (stereo partly drawn) [compound 15, (10S,13R,14R,17R)-4,4,10,13,14-Pentamethyl-17-((2R,5R,6R)-5,6,7-trihydroxy-6-methylheptan-2-yl)-4,5,6,10,12,13,14,15,16,17-decahydro-1H-cyclopenta[a]phenanthren-3(2H)-one], for which the IC50 with MCF-7 cells (MCF7 cells, 72 h, 0-100 μM) was found to be 24.1 µM; in the data set on MDA-MB-231 cells (setting [4]) it was 11.3 µM.

On to `C[C@H](CC[C@H](O)[C@@](C)(O)CO)[C@H]1CC[C@@]2(C)C3=CCC4C(C)(C)C(=O)CC[C@]4(C)C3=CC[C@]12C` (stereo partly drawn) [compound 14, (10S,13R,14R,17R)-4,4,10,13,14-Pentamethyl-17-((2R,5S,6S)-5,6,7-trihydroxy-6-methylheptan-2-yl)-4,5,6,10,12,13,14,15,16,17-decahydro-1H-cyclopenta[a]phenanthren-3(2H)-one], for which the IC50 was found to be 16.3 µM in the data set on MCF-7 cells (MCF7 cells, 72 h, 0-100 μM) and 36.7 µM in the data set with MDA-MB-231 cells (setting [4]).

By melting point is commonly meant the temperature, or range, at which the solid turns liquid. Turning to `C/C(=C\CC[C@@H](C)[C@H]1CC[C@@]2(C)C3=CCC4C(C)(C)C(=O)CC[C@]4(C)C3=CC[C@]12C)CO` (stereo partly drawn) [ganoderol A, (10S,13R,14R,17R)-17-((R,E)-7-Hydroxy-6-methylhept-5-en-2-yl)-4,4,10,13,14-pentamethyl-4,5,6,10,12,13,14,15,16,17-decahydro-1H-cyclopenta[a]phenanthren-3(2H)-one], the melting point lay within 75 to 80 °C. The hypocholestemic activity result with mammalian cells was “significant hypocholestemic activity”.

In the case of `C[C@H](CC[C@H](O)[C@](C)(O)CO)[C@H]1CC[C@@]2(C)C3=CCC4C(C)(C)C(=O)CC[C@]4(C)C3=CC[C@]12C` (stereo partly drawn) [compound 1, (10S,13R,14R,17R)-4,4,10,13,14-Pentamethyl-17-((2R,5S,6R)-5,6,7-trihydroxy-6-methylheptan-2-yl)-4,5,6,10,12,13,14,15,16,17-decahydro-1H-cyclopenta[a]phenanthren-3(2H)-one], the IC50 is 5.8 µM in the data set on MCF-7 cells (MCF7, 72 h); 17.2 µM in data set [2]; 9.7 µM in the data set on MDA-MB-231 cells (MDA-MB-231, 72 h). For the same molecule, in the data set with HIV-1, the “inhibition of HIV-1-induced cytopathic effect” value is listed as “inhibited”. Also, the tumor growth entry in data set [3] is given as “inhibited tumor growth”. In addition, in the data set with human colon cancer cells, the “proliferation of human colon cancer cells” value is reported as “suppressed proliferation”. Further, the “inhibitory activity” value in [1] is reported as “significant inhibitory activity”.

Consider ganodermanodiol, for which the “inhibitory activity” value in data set [1] was “significant inhibitory activity”.

Values taken from patent US9376462B2, “Process for preparing delta-7,9(11) steroids from Ganoderma lucidum and analogs thereof” (Indiana University Research and Technology Corporation, priority 2010, dated 2016).
